This note sets out measurements from article PMC9350837, “Erwinia tasmaniensis levansucrase shows enantiomer selection for (S)-1,2,4-butanetriol” (Acta Crystallographica. Section F, Structural Biology …, 2022).

In this experiment the target is T1, EtLsc (Erwinia tasmaniensis levansucrase) (Erwinia tasmaniensis, UniProt B2VCC3).
T1 construct: gene lsc; lsc gene amplified from Et1/99, pMCSG49 vector, E. coli BL21(DE3) Star pLysS; His6 tag cleaved with TEV protease; IMAC and size exclusion; catalytic triad Asp46, Asp203, Glu287
T1 sequence (B2VCC3 entry or part of it): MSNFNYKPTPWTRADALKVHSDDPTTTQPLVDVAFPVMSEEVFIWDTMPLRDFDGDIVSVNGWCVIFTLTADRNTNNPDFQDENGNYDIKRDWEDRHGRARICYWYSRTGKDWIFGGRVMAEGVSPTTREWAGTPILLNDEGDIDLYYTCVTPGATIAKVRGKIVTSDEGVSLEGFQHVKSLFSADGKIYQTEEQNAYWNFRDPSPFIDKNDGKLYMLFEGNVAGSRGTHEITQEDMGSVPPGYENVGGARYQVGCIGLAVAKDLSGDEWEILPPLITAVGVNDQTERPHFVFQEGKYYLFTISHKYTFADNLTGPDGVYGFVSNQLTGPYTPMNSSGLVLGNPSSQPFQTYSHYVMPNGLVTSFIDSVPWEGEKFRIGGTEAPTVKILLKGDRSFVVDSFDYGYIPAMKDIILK
Kind of experiment: microscale thermophoresis, label-free (Monolith NT.LabelFree). The experiment is classed as binding.

In the case of `OCC[C@H](O)CO` (mixture of isomers) [(S)-1,2,4-butanetriol], the Kd was determined as 84.9 ± 13.4 mM.
